Experimental findings from ChEMBL document CHEMBL1201862, “PubChem BioAssay data set” (2004) are described below.

Test [1] addresses T1, Sentrin-specific protease 6 (Homo sapiens, UniProt Q9GZR1).
T1 sequence (Q9GZR1 whole entry): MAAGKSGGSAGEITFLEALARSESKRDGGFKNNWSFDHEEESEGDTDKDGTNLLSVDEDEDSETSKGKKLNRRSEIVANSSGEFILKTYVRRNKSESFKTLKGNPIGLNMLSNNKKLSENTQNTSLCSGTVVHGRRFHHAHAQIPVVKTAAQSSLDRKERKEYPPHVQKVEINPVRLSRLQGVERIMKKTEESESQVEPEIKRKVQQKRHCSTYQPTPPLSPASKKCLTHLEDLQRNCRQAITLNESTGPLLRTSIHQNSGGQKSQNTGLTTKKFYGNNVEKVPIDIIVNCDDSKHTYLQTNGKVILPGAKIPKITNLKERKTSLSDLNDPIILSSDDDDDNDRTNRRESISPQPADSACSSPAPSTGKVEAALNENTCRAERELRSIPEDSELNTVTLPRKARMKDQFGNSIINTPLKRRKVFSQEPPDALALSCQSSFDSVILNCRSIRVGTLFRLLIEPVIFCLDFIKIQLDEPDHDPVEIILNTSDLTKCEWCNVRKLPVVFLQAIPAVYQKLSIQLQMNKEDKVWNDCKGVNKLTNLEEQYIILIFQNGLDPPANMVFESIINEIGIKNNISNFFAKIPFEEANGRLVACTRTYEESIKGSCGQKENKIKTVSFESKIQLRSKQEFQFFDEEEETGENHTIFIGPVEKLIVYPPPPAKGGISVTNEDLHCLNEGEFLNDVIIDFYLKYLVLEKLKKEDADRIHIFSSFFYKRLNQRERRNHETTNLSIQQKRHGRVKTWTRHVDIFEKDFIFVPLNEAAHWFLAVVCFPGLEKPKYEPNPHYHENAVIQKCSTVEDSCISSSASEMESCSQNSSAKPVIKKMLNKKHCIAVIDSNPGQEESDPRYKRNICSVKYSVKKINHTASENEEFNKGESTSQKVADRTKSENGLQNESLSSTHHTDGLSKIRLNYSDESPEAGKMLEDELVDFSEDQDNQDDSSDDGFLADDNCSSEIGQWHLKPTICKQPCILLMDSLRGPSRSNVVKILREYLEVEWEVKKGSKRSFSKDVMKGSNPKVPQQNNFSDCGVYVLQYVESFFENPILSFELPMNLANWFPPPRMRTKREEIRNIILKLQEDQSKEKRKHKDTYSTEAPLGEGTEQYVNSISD
In kind it is functional.

Test [2] concerns the target T2, Apoptotic protease-activating factor 1 (Homo sapiens, UniProt O14727).
T2 sequence (O14727 whole entry): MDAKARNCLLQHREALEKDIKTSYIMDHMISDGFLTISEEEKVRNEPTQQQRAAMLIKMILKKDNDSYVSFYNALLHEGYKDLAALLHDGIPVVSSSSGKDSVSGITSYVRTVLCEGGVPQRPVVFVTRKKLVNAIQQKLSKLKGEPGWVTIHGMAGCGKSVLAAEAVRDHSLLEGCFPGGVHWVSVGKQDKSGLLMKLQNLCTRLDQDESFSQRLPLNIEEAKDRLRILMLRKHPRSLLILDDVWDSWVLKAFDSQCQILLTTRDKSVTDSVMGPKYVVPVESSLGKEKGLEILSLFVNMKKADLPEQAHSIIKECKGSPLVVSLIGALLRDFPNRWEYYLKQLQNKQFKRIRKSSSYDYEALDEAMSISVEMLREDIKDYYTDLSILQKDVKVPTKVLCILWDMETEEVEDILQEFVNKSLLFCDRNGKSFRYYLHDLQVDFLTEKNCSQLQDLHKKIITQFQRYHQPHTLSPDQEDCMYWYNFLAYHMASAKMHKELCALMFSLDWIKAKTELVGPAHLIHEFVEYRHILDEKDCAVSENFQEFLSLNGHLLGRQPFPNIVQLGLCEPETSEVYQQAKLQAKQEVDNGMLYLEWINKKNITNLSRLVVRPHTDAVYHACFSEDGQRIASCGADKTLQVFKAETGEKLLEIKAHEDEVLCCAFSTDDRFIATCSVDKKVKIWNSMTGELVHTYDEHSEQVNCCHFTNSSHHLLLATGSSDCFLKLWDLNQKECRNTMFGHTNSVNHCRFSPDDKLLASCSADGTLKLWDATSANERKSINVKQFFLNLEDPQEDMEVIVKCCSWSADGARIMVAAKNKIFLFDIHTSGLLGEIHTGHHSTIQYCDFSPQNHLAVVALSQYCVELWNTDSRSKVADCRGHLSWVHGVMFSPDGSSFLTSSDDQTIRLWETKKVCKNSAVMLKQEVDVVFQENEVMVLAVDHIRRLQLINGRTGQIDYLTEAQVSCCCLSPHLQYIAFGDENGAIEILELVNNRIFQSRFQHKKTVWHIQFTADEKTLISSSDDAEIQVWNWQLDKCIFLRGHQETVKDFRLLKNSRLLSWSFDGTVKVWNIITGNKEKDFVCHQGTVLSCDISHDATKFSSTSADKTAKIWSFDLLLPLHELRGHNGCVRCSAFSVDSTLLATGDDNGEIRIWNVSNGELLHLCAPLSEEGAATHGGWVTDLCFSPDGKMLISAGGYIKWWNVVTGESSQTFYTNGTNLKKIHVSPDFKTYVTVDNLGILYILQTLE
In kind it is functional.

Activity calls are given as the source filed them. Cut-off read from the data, not from the text of the source: actives have a measured IC50 and inactives only a lower limit.

For the molecule `Cc1oc2c(c1C(=O)c1ccccc1)C(=O)C(=O)c1ccccc1-2`, in test [1], the IC50 is 6.87 µM (active).
With `O=C1CCCC2=C1C1(O)C(=O)c3ccccc3C1(O)O2` (configuration not stated), the IC50 in test [2] was 13.1 µM (active).
Turning to `COc1ccc(C(=O)Nc2nc3c(s2)Cc2cc(OC)ccc2-3)cc1`, the concentration for half-maximal inhibition (IC50) is 1.65 µM (active) in test [1] and 51.1 µM (active) in test [2].
Regarding `CCN1/C(=C/c2ccc3cc(C)ccc3[n+]2CC)Sc2cc(C)c(C)cc21`, in test [2], the IC50 is 23.9 µM (active).
For `CC(/C=C1\SC(=S)N(NS(=O)(=O)c2ccccc2)C1=O)=C\c1ccccc1`, the half-inhibitory concentration (IC50) in test [1] was 2.64 µM (active).
Regarding `O=C1C(Cl)=C(NCCN2CCCCC2)C(=O)c2ccccc21`, in test [2], the IC50 is 5.4 µM (active).
